The source of these data is US7192606B2, “Drugs for treating viral infections” (priority 2004, dated 2007).

Values after ≈ are worked out from the molar mass of the structure shown. Read-outs that look alike come from different tables or passages of the source. Where only a bound is given, the exact number is not on record here.

In series [1] the test system is cowpox virus. The note with it: cited from earlier work.
For series [2], the system named is cowpox virus. As to the kind of experiment: microbe, parasite or virus in culture. Format: cell-based. The note with it: HFF.
The nature of series [3]: Neutral Red Uptake Assay (toxicity). The note with it: human, stationary HFF cells.
A short description of series [4]: Parallel Artificial Membrane Permeability Assay (PAMPA)-MS. The note with it: hexadecane membrane layer, 4 hr, 50 microM in PBS, LC-MS. On the technique in general: The PAMPA barrier holds no transporters, so it reflects passive diffusion.
A further series concerns Caco-2 cells. The series can be described thus: Caco-2 cell permeability assay. The note with it: for A side % Remaining at 2 hrs: Caco-2, A side; for B side % Remaining at 2 hrs: Caco-2, B side; for A-B: Caco-2, apical to basolateral; for A-B / B-A: 25 microM, 2 hours, 37° C.; for B-A: Caco-2, basolateral to apical.
The subject of series [5] is variola virus (smallpox) isolates. Format: cell-based.
Another series concerns stationary HFF cells. The series can be described thus: Neutral Red Uptake Assay (toxicity). The note with it: Neutral Red Uptake.
The test system of series [6] is cowpox virus. The series is classed as cell-based.
Series [7] can be described thus: Caco-2 cell permeability assay. The note with it: human, Caco-2. (In general: Passage across Caco-2 layers is used to estimate intestinal permeability.)
Series [8] deals with cowpox virus. Format: cell-based. The source holds these as a separate data set.
The next series concerns vaccinia virus. The series is classed as cell-based.
The test system of series [9] is cowpox virus. Further details: species or system BALB/c mice. The note with it: mouse, in vivo.

Take `Nc1ccn(C[C@@H](CO)OCP(=O)(O)O)c(=O)n1` [CDV, reference compound]: the “active concentration in these cells” value in the series with cowpox virus [1] is “about 12.0 microgram/mL”. The molecule further returned a 90% effect concentration (EC90) in the series with cowpox virus [2] of 18.7 µg/mL (≈ 67 µM). In [3], this molecule yielded a CC50 above 100 µg/mL.

The molecule `O=S(=O)(NC12CC3CC(CC(C3)C1)C2)NS(=O)(=O)NC12CC3CC(CC(C3)C1)C2` [Example 1, N,N^1-Bis(tricyclo[3.3.1.1^3,7]dec-1-yl)imidodisulfamide] came in with a CC50 in the series with uninfected cells of 43.0 microgram/mL. Moreover, the “concentration up to which cell monolayers were healthy” value with monkey (Vero) cells was at least 30 microgram/mL. Also, the permeability in series [4] was found to be 4.3e-07 cm/s. In the series with Caco-2 cells, the “A side % Remaining at 2 hrs” value was found to be 85.05%, the “B side % Remaining at 2 hrs” value was found to be 105.39%, the A-B is on record as 9.07 and the B-A is reported as 18.85. Moreover, in the series on Caco-2 cells (Caco-2, B-A / A-B), the Ratio worked out at 2.1. The “average EC50” value in [5] worked out at 0.10 microgram/mL. In the series with stationary HFF cells, this molecule gave a CC50 of 78.9 microgram/mL. Further, in the series with cowpox virus [6], the “plaques at 1.0 microgram/mL” value is reported as “tiny relative to the untreated ones” and the “plaques at 3.0 microgram/mL” value is on record as “nearly completely eliminated”. Besides, the EC50 in the series with cowpox virus [6] (3 days) is on record as 2.0 microgram/mL.

`CC(C)NCC(O)COc1cccc2ccccc12` (stereo not drawn) [Propranolol, reference compound]: in the series with Caco-2 cells, the “A side % Remaining at 2 hrs” value worked out at 68.60%, the “B side % Remaining at 2 hrs” value turned out to be 88.38%, the A-B is recorded as 39.03 and the B-A is listed as 72.42. Besides, in [7], the efflux ratio at 2 h, 25 microM amounted to 1.9.

In the case of “Sodium N,N^1-(Tricyclo[3.3.1.1^3,7]dec-1-yl)imidodisulfamide [Example 11]”, in the series on cowpox virus [8], the EC50 entry is recorded as “EC50: 0.50 microgram/mL;” and the EC90 result is recorded as “EC90: 2.10 microgram/mL;”. In addition, the CC50 in the series with stationary HFF cells came out at 87.6 microgram/mL. Moreover, in the series with vaccinia virus, the EC50 entry was “EC50: 0.04 microgram/mL;” and the 90% effect concentration (EC90) result is reported as “EC90: 0.11 microgram/mL;”. Moreover, the “Lung titer on Day 3” value in the series on cowpox virus [9] is 6.6±1.3.

The term EC90 denotes the concentration at which the effect reaches the 90% level. Broadly, the efflux ratio is the permeability from basolateral to apical divided by that in the opposite direction, in the common usage.
